From ChEMBL document CHEMBL1201862, “PubChem BioAssay data set” (2004)
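96-well plates; 48 h exposure; 5 concentrations. Endpoints by linear interpolation between flanking doses. Not reached: highest tested concentration assigned. GI50 is the concentration that inhibits growth by half.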 The source made the active and inactive calls. Rule as the data show it: active = GI50 up to about 1.1 µM and inactive = higher. Residues, ends and D or L forms follow the SMILES beside them. *: point of attachment. Cbz = O=C(OCc1ccccc1)*

How the values were obtained:
Experiment in all cases: inhibition of tumour cell growth, NCI panel, 48 h
MDA-N = test system: MDA-N
Hs-578T = test system: Hs-578T
MCF7 = test system: MCF7
PC-3 = test system: PC-3
XF498 = test system: XF498
DMS-273 = test system: DMS-273
M19-MEL = test system: M19-MEL
HOP-18 = test system: HOP-18

Measured: GI50

O=C1Nc2ccccc2C1Cc1ccccc1 (stereo not given)
inactive: MDA-N > 100 µM | Hs-578T > 100 µM | MCF7 > 100 µM | PC-3 > 100 µM

CC1C2(C)OC(=N)C(C#N)(C(C)O2)C1(C#N)C#N (stereo not given)
inactive: MDA-N 18.6 µM | Hs-578T 29.4 µM | MCF7 24.8 µM | PC-3 31.8 µM

O=C1c2ccccc2C(=O)c2[nH]cnc21
inactive: XF498 32.7 µM | DMS-273 46.8 µM | M19-MEL 20.4 µM

COC(=O)C(=O)C(C(=O)C(=O)Nc1ccc([N+](=O)[O-])cc1C#N)c1nc2ccc([N+](=O)[O-])cc2nc1O (stereo not given)
inactive: DMS-273 > 100 µM | HOP-18 34.8 µM | M19-MEL > 100 µM

CCN1CCN=c2c3cc(OC)ccc3n3cnc4ccc1c2c43
active: MDA-N 0.256 µM | Hs-578T 0.313 µM | MCF7 0.219 µM | PC-3 0.207 µM

COC(=O)c1ccc2c(c1)S/C(=C/c1ccc3ccc4cccc5ccc1c3c45)S2
inactive: MDA-N 52.5 µM | Hs-578T 37.9 µM | MCF7 33.3 µM | PC-3 48.1 µM

N=C(N)c1ccc(/C=C/c2ccc(C(=N)N)cc2)cc1
inactive: MDA-N > 100 µM | Hs-578T 48 µM | MCF7 96.6 µM | PC-3 64.9 µM

C1OCN2c3nonc3N3COCN4c5nonc5N1C2C43 (stereo not given)
inactive: MDA-N 62.8 µM | Hs-578T > 100 µM | MCF7 49.1 µM | PC-3 > 100 µM

COc1ccc2oc(=O)c(-c3csc(C)n3)cc2c1
inactive: Hs-578T 30.7 µM | MCF7 > 100 µM | PC-3 > 100 µM

O=[N+]([O-])c1ccc(N/N=C(\c2ccccc2)c2ccccn2)nc1
active: MCF7 < 0.0492 µM | PC-3 0.92 µM
inactive: MDA-N 20 µM | Hs-578T 4.29 µM

CC(=O)OC1c2ccccc2CCCCCCC12OCCO2 (stereo not given)
inactive: HOP-18 > 100 µM

COc1ccc(/C=C2/CCS(=O)(=O)c3ccc(C)cc3C2=O)cc1OC
inactive: MDA-N 11.9 µM | Hs-578T 11.5 µM | MCF7 8.38 µM | PC-3 15.8 µM

CC(C)(C)c1ccc2c(c1)CNCCNCc1cc(C(C)(C)C)ccc1OCC1(CO2)COc2ccc(C(C)(C)C)cc2CNCCNCc2cc(C(C)(C)C)ccc2OC1
active: MDA-N 0.649 µM | Hs-578T 1.06 µM | MCF7 0.461 µM
inactive: PC-3 1.58 µM

CCOC(=O)N1CCN(Cc2cc(=O)n3ccc(C)cc3n2)CC1
inactive: MDA-N > 100 µM | Hs-578T > 100 µM | MCF7 > 100 µM | PC-3 > 100 µM

COc1ccc(/N=C(/[N-]n2c(=O)c(C)nn(C)c2=S)N(c2ccc(OC)cc2)c2n[n+]3c(=O)c(C)nn(C)c3s2)cc1
inactive: DMS-273 > 100 µM | HOP-18 > 100 µM | M19-MEL > 100 µM

COc1ncc(C=C(C#N)C#N)c(OC)n1
inactive: MDA-N 26.9 µM | Hs-578T 60.7 µM | MCF7 36.7 µM | PC-3 39.2 µM

COc1ccc(OC)c2c1C=CC(Br)=CC2
active: MDA-N 0.229 µM | Hs-578T 0.224 µM | MCF7 0.295 µM | PC-3 0.352 µM

CCN(CC)CCNc1c(OC)cc(C)c2sc3ccccc3c(=O)c12
inactive: Hs-578T 7.5 µM | MCF7 4.44 µM | PC-3 7.71 µM

NNC(=O)c1ccccc1NC(=O)/C(=C/c1ccccc1)NC(=O)c1ccccc1
inactive: MDA-N 72.4 µM | Hs-578T 54.1 µM | MCF7 > 100 µM | PC-3 > 100 µM

CC(Cc1ccccc1)N(C)Cc1nc(C2CCC([N+](=O)[O-])O2)no1 (stereo not given)
inactive: Hs-578T 2.46 µM | MCF7 4.06 µM

COc1c(C)c(OC)c2c(c1O)[C@@H]1[C@@H]3Cc4c(OC)c(C)c(OC)c(O)c4[C@H](CNC(=O)c4ccc5ccccc5n4)N3[C@@H](C#N)[C@H](C2)N1C
active: MDA-N 0.000807 µM | Hs-578T 0.00124 µM | MCF7 0.000424 µM | PC-3 0.00234 µM

CNC(=S)Nc1ccc(OC)c2ccccc12
inactive: MDA-N > 10 µM | Hs-578T > 10 µM | MCF7 > 10 µM | PC-3 > 10 µM

CC1CCc2c(sc3ncnc(N/N=C/c4ccc(Cl)c(Cl)c4)c23)C1 (stereo not given)
inactive: DMS-273 7.98 µM | M19-MEL 19.8 µM

O=C(O)c1cccc(/N=N/c2c(S(=O)(=O)O)ccc3c2C(=O)c2ccccc2C3=O)c1O
inactive: MDA-N > 100 µM | Hs-578T > 100 µM | MCF7 > 100 µM | PC-3 > 100 µM

CCOC(=O)CNc1nc(=O)c2c(=O)oc(Cl)cc2o1
inactive: MDA-N 14.2 µM | Hs-578T 19.3 µM | PC-3 13.2 µM

Cc1ccc(S(=O)(=O)N(CC(O)COc2ccccc2)c2c(F)c(F)c(F)c(F)c2F)cc1 (stereo not given)
inactive: MDA-N 15.6 µM | Hs-578T 18.5 µM | MCF7 10.5 µM | PC-3 13.6 µM

O=C1CCCC/C1=C\c1ccc(Br)cc1
inactive: MDA-N 16.3 µM | Hs-578T 24.5 µM | MCF7 2.71 µM | PC-3 97.7 µM

CCOC(=O)CSc1nc(N)c2c(-c3ccccc3)c3c(nc2n1)CCCC3
inactive: MDA-N > 100 µM | Hs-578T 65.8 µM | MCF7 > 100 µM | PC-3 > 100 µM

Cc1cccc(-n2c(C)nc3ccc(NC4OC(CO)C(O)C(O)C4O)cc3c2=O)c1 (stereo not given)
inactive: MDA-N > 100 µM | Hs-578T > 100 µM | MCF7 > 100 µM | PC-3 > 100 µM

COc1ccc(C)cc(O)c1=O
inactive: DMS-273 44.7 µM | HOP-18 40.9 µM | M19-MEL 32.3 µM

CCCn1c(SCCSc2c3ccccc3c(-c3nc(F)nc(F)n3)n2CCC)c2ccccc2c1-c1nc(F)nc(F)n1
inactive: DMS-273 > 100 µM | HOP-18 > 100 µM

CN1CCCN2CCN(C)CCN(CC1)CC2
inactive: MDA-N > 100 µM | Hs-578T > 100 µM | MCF7 > 100 µM | PC-3 > 100 µM

CCOc1ccc2ccccc2c1NC1=NCCO1
inactive: Hs-578T 23.1 µM | MCF7 37.8 µM

COC(=O)c1cc(C)n2c1CS[C@@H]2c1ccccc1
inactive: MDA-N 21.1 µM | Hs-578T 45.1 µM | MCF7 34 µM | PC-3 40.5 µM

O=C1C=C(OCCCCl)C(=O)c2c(O)ccc(O)c21
active: MDA-N 0.184 µM | MCF7 0.195 µM
inactive: Hs-578T 2.42 µM | PC-3 1.93 µM

Cc1cc(-c2ccccc2)nc(Nc2nc3ccccc3o2)n1
inactive: XF498 > 100 µM | M19-MEL > 100 µM

O=[N+]([O-])C1=Cc2c(O)ccc(O)c2C2c3ccccc3NC12 (stereo not given)
inactive: MDA-N 18.3 µM | Hs-578T 26.1 µM | MCF7 2.71 µM | PC-3 6.3 µM

CCOC(=O)C(C(N)=O)C1=Nc2cc([N+](=O)[O-])ccc2N/C1=C\C(=O)c1ccccc1 (stereo not given)
inactive: MDA-N 18.7 µM | Hs-578T 16.5 µM | MCF7 12.4 µM | PC-3 15.5 µM

CO[C@]12C[C@@H](CNC(=O)c3cc(Br)c[nH]3)O[C@H]1NC(=O)N2
inactive: Hs-578T > 100 µM | MCF7 > 100 µM | PC-3 > 100 µM

CCN(CC)c1c(C(C)(C)C)c(=O)n2ccsc2c1OC(C)=O
inactive: MDA-N 18.6 µM | Hs-578T 22.9 µM | MCF7 15.6 µM | PC-3 11.2 µM

Cc1ccc(Nc2nc(N)nc3c2ncn3C2OC(CO)C(O)C2O)cc1 (stereo not given)
inactive: MDA-N > 100 µM | MCF7 > 100 µM | PC-3 > 100 µM

C/C(Cl)=N/OC(=O)Nc1ccc(S(N)(=O)=O)c(C)c1
inactive: MDA-N 11.7 µM | Hs-578T 43.4 µM | MCF7 5.38 µM | PC-3 18.3 µM

C[C@@H]1C[C@](O)([C@@H](C)Cl)C(=O)O[C@@H]2CCN3CC=C(COC(=O)[C@]1(C)O)[C@H]23
inactive: MDA-N > 100 µM | Hs-578T > 100 µM | MCF7 > 100 µM | PC-3 > 100 µM

CO[C@]12CCC(=O)N1C=Cc1c2[nH]c2ccccc12
inactive: HOP-18 > 100 µM | M19-MEL > 100 µM

O=c1c2ccc(Cl)cc2oc2c(CNc3ccc(S(=O)(=O)Nc4nccs4)cc3)cccc12
inactive: MDA-N > 100 µM | MCF7 > 100 µM | PC-3 > 100 µM

C1=C2C3=[N+](CCCC3)CC2Cc2sccc21 (stereo not given)
inactive: MDA-N > 100 µM | Hs-578T > 100 µM | MCF7 > 100 µM | PC-3 45.6 µM

COc1nc(N)nc2c1ncn2C1CC(O)C(CO)O1 (stereo not given)
inactive: Hs-578T > 100 µM | MCF7 > 100 µM | PC-3 > 100 µM

COc1cccc(-c2ccc3c4c2O[C@H]2c5[nH]c6ccccc6c5C[C@@]5(O)[C@@H](C3)N(CC3CC3)CC[C@]425)c1
inactive: MDA-N 1.85 µM | Hs-578T 1.49 µM | MCF7 1.69 µM

C[C@H](CCC(=O)NCCS(=O)(=O)O)[C@H]1CC[C@H]2[C@@H]3[C@H](O)C[C@@H]4C[C@H](O)CC[C@]4(C)[C@H]3CC[C@]12C
inactive: MDA-N > 100 µM | Hs-578T > 100 µM | MCF7 > 100 µM | PC-3 > 100 µM

O=S(=O)(O)c1cccc2c(/N=N/c3c(O)ccc4ccccc34)cccc12
inactive: MDA-N > 100 µM | Hs-578T > 100 µM | PC-3 > 100 µM

Cc1cn(C2CC(O)C(COP(=O)(O)OC3CC(n4c[n+]([BH2-]C#N)c5c(=O)[nH]c(N)nc54)OC3CO)O2)c(=O)[nH]c1=O (stereo not given)
inactive: MDA-N > 100 µM | Hs-578T > 100 µM | MCF7 > 100 µM | PC-3 > 100 µM

COc1cc(C2c3cc4c(cc3[C@@H](NCCN3CCCCC3)C3COC(=O)[C@H]23)OCO4)cc(OC)c1O (stereo not given in full)
active: DMS-273 0.123 µM | HOP-18 0.509 µM | M19-MEL 1 µM

[N-]=[N+]=NC(CCl)c1cn([C@H]2C[C@H](O)[C@@H](CO)O2)c(=O)[nH]c1=O (stereo not given in full)
inactive: DMS-273 > 100 µM | HOP-18 > 100 µM | M19-MEL > 100 µM

c1ccc(-c2nc(-c3ccccc3)c(-c3ccccc3)[nH]2)cc1
inactive: MDA-N > 88.7 µM | Hs-578T 23.9 µM | MCF7 70.3 µM | PC-3 > 100 µM

CC(NC(=O)C(NC(=O)OCc1ccccc1)C(C)C)C(=O)NCC(=O)O (stereo not drawn) (Cbz-Val-Ala-Gly-OH; configuration not given here)
inactive: MDA-N > 100 µM | Hs-578T > 100 µM | MCF7 > 100 µM | PC-3 > 100 µM
